Laboratory results from patent US20040249122A1, “Cationic, amphipathic beta-sheet peptides and uses thereof” (priority 2003, published 2004).
Where a SMILES comes first, the peptide text is derived from it.

Columns and labels:
[1] = system: Candida albicans (ATCC 14053); conditions: ATCC 14053
Description: (§1) Antimicrobial and Hemolytic Assays. Antimicrobial susceptibility testing against Staphylococcus aureus (ATCC 29213), Escherichia coli (ATCC 25922), and Pseudomonas aeruginosa (ATCC 27853) was performed using a modification of the National Committee for Clinical Laboratory Standards microdilution broth assay (22). Mueller-Hinton broth (BBL) was used for diluting the peptide stock solution and for diluting the bacterial inoculum. The inoculum was prepared from mid-logarithmic phase cultures. Microtiter plate wells received aliquots-of 100 μL each of the inoculum and peptide dilution. The final concentration of peptide solution ranged-from 0.25 to 256 μg/mL in two-fold dilutions. The final concentration of bacteria in the wells was 5×10^5 CFU/mL. Peptides were tested in duplicate. In addition to the test peptide, three standard peptides and a non-treated growth control were included to validate the assay. The microtiter plates were incubated overnight at 37° C. and the absorbance was measured at 600 nm. […] After incubation at 37° C. for 30 min, the suspension was centrifuged at 10,000×g for 10 min and the absorbance at 400 nm was measured. Complete hemolysis was determined by adding 0.2% Triton X-100 in place of the peptide.
Antimicrobial susceptibility testing against Escherichia coli (ATCC 25922), Staphylococcus aureus (ATCC 29213), Pseudomonas aeruginosa (ATCC 27853), and Candida albicans (ATCC 14053) is performed using a modification of the National Committee for Clinical Laboratory Standards microdilution broth assay. Mueller-Hinton broth (BBL) is used for diluting the peptide stock solution and for diluting the bacterial inoculum. The inoculum is prepared from midlogarithmic phase cultures at an approximate concentration of 10^6 CFU/mL. Microtiter plate wells receive aliquots of 0.1 mL each of the inoculum and peptide dilution. The final concentration of the peptide solution ranges from 0.25 to 256 μg/mL in 2-fold dilutions. The microtiter plates are incubated overnight at 37° C.

[2] = Peptide-induced leakage from calcein-loaded LUV
human erythrocytes = experiment: Hemolysis of human erythrocytes; format: cell-based; conditions: red cells of human, 500
Description: as §1, with “Microtiter plate wells received aliquots-of 100 μL each of the inoculum and peptide dilution.” left out, “measured.” for “measured. Complete hemolysis was determined by adding 0.2% Triton X-100 in place of the peptide.”

[3] = system: Staphylococcus aureus (ATCC 29213); format: cell-based; conditions: ATCC 29213
[4] = system: Escherichia coli (ATCC 25922); format: cell-based; conditions: ATCC 25922
[5] = system: Pseudomonas aeruginosa (ATCC 27853); format: cell-based; conditions: ATCC 27853
microorganisms = conditions: literature (52, 54); E. coli, S. aureus, P. aeruginosa for FKVKFKVKVK; cited from earlier work

With CC[C@H](C)[C@H](NC(=O)[C@H](C)NC(=O)CNC(=O)[C@H](C)NC(=O)[C@H](CCCCN)NC(=O)[C@H](CO)NC(=O)[C@H](C)NC(=O)[C@H](CCSC)NC(=O)CN)C(=O)N[C@@H](C)C(=O)NCC(=O)N[C@@H](CCCCN)C(=O)N[C@H](C(=O)N[C@@H](C)C(=O)N[C@@H](CCCCN)C(=O)N[C@H](C(=O)N[C@@H](C)C(=O)N[C@@H](CC(C)C)C(=O)N[C@@H](CCCCN)C(=O)N[C@@H](C)C(=O)N[C@@H](CC(C)C)C(N)=O)C(C)C)[C@@H](C)CC [PGLa, GMASKAGAIAGKIAKVALKAL -NH2, reference compound] (H-GMASKAGAIAGKIAKVALKAL-NH2; N-terminus assumed) the “Minimum Inhibitory Concentration, C. albicans” value [1] was 128 µg/mL, the “calcein leakage from LUV (in words)” value ([2]; 4:1 POPE/POPG LUV) was “quite low” and the “calcein leakage from LUV (in words)” value ([2]; POPC (PC) LUV) was “not very effective”. For the same compound, the “calcein leakage from LUV (in words)” value ([2]; POPC/POPG LUV, all ratios (1:1 to 4:1)) was “most potent”, the “calcein release from LUV (in words)” value ([2]; POPG LUV) was “most potent” and the “% Hemolysis (500 μg/mL)” value (human erythrocytes) was 1%. The “Minimum Inhibitory Concentration, S. aureus” value [3] was 64 µg/mL, the “Minimum Inhibitory Concentration, E. coli” value [4] was 32 µg/mL and the “Minimum Inhibitory Concentration, P. aeruginosa” value [5] was 128 µg/mL.

In the case of FKVKFKVKVK (artificial mutant), the “antimicrobial or hemolytic activity as reported in the literature” value (microorganisms) is given as “able to inhibit the growth”.
